Assay results reported in patent US20240158446A1, “CYCLIC COMPOUND HAVING SELECTIVE INHIBITORY ACTION ON KRAS OVER HRAS AND NRAS” (CHUGAI SEIYAKU KABUSHIKI KAISHA, priority 2021, published 2024).
Like-named read-outs stand apart in the source and are kept apart here.

What was measured:
[1] = target: GDP-bound NRAS wild-type protein (Homo sapiens, UniProt P01111); assay: Binding to NRAS by surface plasmon resonance (SPR), Single Cycle Kinetics; settings: for NRAS/KRAS (ratio of KD value for NRAS to KD value for KRAS): SPR, GDP-bound NRAS wild-type protein vs GDP-bound KRAS wild-type protein; for NRAS/KRAS (ratio of KD value with respect to GDP-bound NRAS wild-type protein to KD value with respect to KRAS): SPR KD ratio NRAS/KRAS, class symbols
[2] = target: GDP-bound HRAS wild-type protein (Homo sapiens, UniProt P01112); assay: Binding to HRAS by surface plasmon resonance (SPR), Single Cycle Kinetics; settings: for HRAS/KRAS (ratio of KD value for HRAS to KD value for KRAS): SPR, GDP-bound HRAS wild-type protein vs GDP-bound KRAS wild-type protein; for HRAS/KRAS (ratio of KD value with respect to GDP-bound HRAS wild-type protein to KD value with respect to KRAS): SPR KD ratio HRAS/KRAS, class symbols
[3] = test system: human lung cancer strain NCI-H441;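 further: cell proliferation inhibition after four days measured by CellTiter-Glo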
[4] = target: GDP-bound KRAS wild-type protein (Homo sapiens, UniProt P01116); assay: Binding to KRAS by surface plasmon resonance (SPR), Single Cycle Kinetics; settings: GDP-bound KRAS wild-type protein, read-out: KRAS KD
[5] = SPR Single Cycle Kinetics, 1:1 binding model
[6] = SPR, Single Cycle Kinetics, 1:1 binding model

Sequence of GDP-bound KRAS wild-type protein (P01116 whole entry): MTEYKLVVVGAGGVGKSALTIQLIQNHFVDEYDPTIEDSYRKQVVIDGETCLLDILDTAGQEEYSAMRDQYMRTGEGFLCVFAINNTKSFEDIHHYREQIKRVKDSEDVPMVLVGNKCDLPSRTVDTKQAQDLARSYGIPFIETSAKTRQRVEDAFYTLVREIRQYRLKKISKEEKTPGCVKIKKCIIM
Sequence of GDP-bound NRAS wild-type protein (P01111 whole entry): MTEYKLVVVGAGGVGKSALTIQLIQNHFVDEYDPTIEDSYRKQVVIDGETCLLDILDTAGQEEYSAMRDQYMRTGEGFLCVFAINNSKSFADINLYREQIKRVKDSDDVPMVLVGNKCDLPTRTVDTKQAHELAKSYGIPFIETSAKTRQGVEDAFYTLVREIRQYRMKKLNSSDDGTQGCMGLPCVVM
Sequence of GDP-bound HRAS wild-type protein (P01112 whole entry): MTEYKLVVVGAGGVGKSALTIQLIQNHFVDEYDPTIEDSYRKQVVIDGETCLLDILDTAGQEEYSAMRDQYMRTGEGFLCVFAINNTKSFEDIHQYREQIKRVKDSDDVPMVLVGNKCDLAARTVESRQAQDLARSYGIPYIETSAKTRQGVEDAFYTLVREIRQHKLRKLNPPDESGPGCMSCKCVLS

| Structure (SMILES) | IC50 [3] [nM] | Kd ([4]; SPR, Single Cycle Kinetics) [nM] | Kd [4, 5] [nM] | Kd [4, 6] [nM] | NRAS/KRAS (ratio of KD value for NRAS to KD value for KRAS) [1] | HRAS/KRAS (ratio of KD value for HRAS to KD value for KRAS) [2] | NRAS/KRAS (ratio of KD value with respect to GDP-bound NRAS wild-type protein to KD value with respect to KRAS) [1] | HRAS/KRAS (ratio of KD value with respect to GDP-bound HRAS wild-type protein to KD value with respect to KRAS) [2] | NRAS/KRAS (ratio of KD value for NRAS to KD value for KRAS) ([1]; KD ratio class) | HRAS/KRAS (ratio of KD value for HRAS to KD value for KRAS) ([2]; KD ratio class) |
| --- | --- | --- | --- | --- | --- | --- | --- | --- | --- | --- |
| CCC(CC)[C@H]1C(=O)N(C)[C@H](C(=O)N(C)C)CC(=O)N(C)[C@@H](COC)C(=O)N[C@@H]([C@@H](C)CC)C(=O)N2CCC[C@H]2C(=O)N(C)[C@H]2C/C=C\CCN(C2=O)[C@@H](Cc2ccc(C(F)(F)F)cc2)C(=O)N(C)CC(=O)N[C@@H](CCc2ccc(Cl)c(Cl)c2)C(=O)N2C[C@H](OC3CCC3)C[C@H]2C(=O)NC2(CC(C)(C)C2)C(=O)N1C [PP2645] | 86.7 | – | 1.1 | – | – | – | AA (a compound having 20 or more is denoted as AA) | A (a compound having 10 or more and less than 20 is denoted as A) | – | – |
| CCOC[C@H]1C(=O)N[C@@H]([C@@H](C)CC)C(=O)N(C)CC(=O)N(C)[C@H]2C/C=C\CCN(C2=O)[C@@H](CC2CCC(F)(F)CC2)C(=O)N(C)CC(=O)N[C@@H](CCc2ccc(C(F)(F)F)c(Cl)c2)C(=O)N2C[C@@H](C)C[C@H]2C(=O)NC2(CC(C)(C)C2)C(=O)N(C)[C@@H](C(CC)CC)C(=O)N(C)[C@H](C(=O)N(C)C)CC(=O)N1C [PP2475] | 176 | 1.5 | – | – | AA (a compound having 20 or more is denoted as AA) | A (a compound having 10 or more and less than 20 is denoted as A) | – | – | – | – |
| CCC[C@H]1C(=O)N[C@@H]([C@@H](C)CC)C(=O)N(C2CC2)CC(=O)N(C)[C@H]2C/C=C\CCN(C2=O)[C@@H](Cc2ccc(C)cc2)C(=O)N(C)CC(=O)N[C@@H](CCc2ccc(Cl)c(Cl)c2)C(=O)N2C[C@H](OC3CCC3)C[C@H]2C(=O)NC2(CC(C)(C)C2)C(=O)N(C)[C@@H](C2CCCC2)C(=O)N(C)[C@H](C(=O)N(C)C)CC(=O)N1C [PP2616] | 66.4 | – | 0.8 | – | – | – | A (a compound having 10 or more and less than 20 is denoted as A) | A (a compound having 10 or more and less than 20 is denoted as A) | – | – |
| CCO[C@@H]1C[C@H]2C(=O)NC3(CC(C)(C)C3)C(=O)N(C)[C@@H](C(CC)CC)C(=O)N(C)[C@H](C(=O)N(C)C)CC(=O)N(C)[C@@H](COC)C(=O)N[C@@H]([C@@H](C)CC)C(=O)N(C)CC(=O)N(C)[C@H]3C/C=C\CCN(C3=O)[C@@H](CC3CCCCC3)C(=O)N(C)CC(=O)N[C@@H](CCc3ccc(C(F)(F)F)c(OC)c3)C(=O)N2C1 [PP2452] | 43.4 | 1.5 | – | – | A (a compound having 10 or more and less than 20 is denoted as A) | A (a compound having 10 or more and less than 20 is denoted as A) | – | – | – | – |
| CCC[C@H]1C(=O)N[C@@H]([C@@H](C)CC)C(=O)N2CCC[C@H]2C(=O)N(C)[C@H]2C/C=C\CCN(C2=O)[C@@H](Cc2ccc(C(F)F)cc2)C(=O)N(C)CC(=O)N[C@@H](CCc2ccc(Cl)c(Cl)c2)C(=O)N2C[C@H](OC(C)C)C[C@H]2C(=O)NC2(CC(C)(C)C2)C(=O)N(C)[C@@H](C(CC)CC)C(=O)N(C)[C@H](C(=O)N(C)C)CC(=O)N1C [PP2640] | 84.1 | – | 1.4 | – | – | – | AA (a compound having 20 or more is denoted as AA) | A (a compound having 10 or more and less than 20 is denoted as A) | – | – |
| CCCOC[C@H]1C(=O)N[C@@H]([C@@H](C)CC)C(=O)N(C)CC(=O)N(C)[C@H]2C/C=C\CCN(C2=O)[C@@H](Cc2ccc(C)cc2)C(=O)N(C)CC(=O)N[C@@H](CCc2ccc(C(F)(F)F)c(Cl)c2)C(=O)N2C[C@@H](C)C[C@H]2C(=O)NC2(CC(C)(C)C2)C(=O)N(C)[C@@H](C2CCCC2)C(=O)N(C)[C@H](C(=O)N(C)C)CC(=O)N1C [PP2453] | 9.2 | 0.09 | – | – | A (a compound having 10 or more and less than 20 is denoted as A) | A (a compound having 10 or more and less than 20 is denoted as A) | – | – | – | – |

Now from value to compound, other results behind:

| IC50 [3] [nM] | Kd ([4]; SPR, Single Cycle Kinetics) [nM] | Kd [4, 5] [nM] | Kd [4, 6] [nM] | Structure (SMILES) | NRAS/KRAS (ratio of KD value for NRAS to KD value for KRAS) [1] | HRAS/KRAS (ratio of KD value for HRAS to KD value for KRAS) [2] | NRAS/KRAS (ratio of KD value with respect to GDP-bound NRAS wild-type protein to KD value with respect to KRAS) [1] | HRAS/KRAS (ratio of KD value with respect to GDP-bound HRAS wild-type protein to KD value with respect to KRAS) [2] | NRAS/KRAS (ratio of KD value for NRAS to KD value for KRAS) ([1]; KD ratio class) | HRAS/KRAS (ratio of KD value for HRAS to KD value for KRAS) ([2]; KD ratio class) |
| --- | --- | --- | --- | --- | --- | --- | --- | --- | --- | --- |
| 50 | 0.13 | – | – | CCO[C@@H]1C[C@H]2C(=O)NC3(CCC3)C(=O)N(C)[C@@H](C3CCCC3)C(=O)N(C)[C@H](C(=O)N3CCOCC3)CC(=O)N(C)[C@@H](CC)C(=O)N[C@@H]([C@@H](C)CC)C(=O)N(C)CC(=O)N(C)[C@H]3CCCCCN(C3=O)[C@@H](Cc3ccc(F)cc3)C(=O)N(C)CC(=O)N[C@@H](CCc3cc(F)c(C(F)(F)F)c(F)c3)C(=O)N2C1 [PP1176] | B (a compound having 3 or more and less than 10 is denoted as B) | B (a compound having 3 or more and less than 10 is denoted as B) | – | – | – | – |
| 45.4 | – | 0.68 | – | CC[C@H](C)[C@@H]1NC(=O)[C@H](COC)N(C)C(=O)C[C@@H](C(=O)N(C)C)N(C)C(=O)[C@H](C2CCCC2)N(C)C(=O)C2(CC(C)(C)C2)NC(=O)[C@@H]2C[C@@H](OC3CCCC3)CN2C(=O)[C@H](CCc2cc(F)c(C(F)(F)F)c(F)c2)NC(=O)CN(C)C(=O)[C@H](CC2CCC(F)(F)CC2)N2CC/C=C\C[C@@H](C2=O)N(C)C(=O)CN(C2CC2)C1=O [PP2634] | – | – | A (a compound having 10 or more and less than 20 is denoted as A) | A (a compound having 10 or more and less than 20 is denoted as A) | – | – |
| 6.6 | – | – | 0.081 | CCO[C@@H]1C[C@H]2C(=O)NC3(CCC3)C(=O)N(C)[C@@H](C3CCCC3)C(=O)N(C)[C@H](C(=O)N3CCOCC3)CC(=O)N(C)[C@@H](CC)C(=O)N[C@@H]([C@@H](C)CC)C(=O)N(C)CC(=O)N(C)[C@H]3CC[C@@H](C)CN(C3=O)[C@@H](Cc3ccc(C(F)(F)F)cc3)C(=O)N(C)CC(=O)N[C@@H](CCc3ccc(C(F)(F)F)c(Cl)c3)C(=O)N2C1 [PP1378] | – | – | – | – | B (a compound having 3 or more and less than 10 is denoted as B) | C (A compound having a KD ratio of 0.1 or more and less than 3 is denoted as C) |
| 7.2 | – | – | 0.084 | CC[C@H](C)[C@@H]1NC(=O)[C@H](CC2CC2)N(C)C(=O)C[C@@H](C(=O)N(C)C)N(C)C(=O)[C@H](C2CCCC2)N(C)C(=O)C2(CCCC2)NC(=O)[C@@H]2CCCN2C(=O)[C@H](CCc2ccc(C(F)(F)F)c(Cl)c2)NC(=O)CN(C)C(=O)[C@H](Cc2ccc(C(F)(F)F)cc2)N2C[C@H](C)CC[C@@H](C2=O)N(C)C(=O)CN(C)C1=O [PP1346] | – | – | – | – | B (a compound having 3 or more and less than 10 is denoted as B) | B (a compound having 3 or more and less than 10 is denoted as B) |
| 30.5 | – | – | 0.28 | CCO[C@@H]1C[C@H]2C(=O)NC3(CCC3)C(=O)N(C)[C@@H](C3CCCC3)C(=O)N(C)[C@H](C(=O)N(C)C)CC(=O)N(C)[C@@H](CC3CC3)C(=O)N[C@@H]([C@@H](C)CC)C(=O)N(C)CC(=O)N(C)[C@H]3C/C=C\CCN(C3=O)[C@@H](Cc3ccc(C)cc3)C(=O)N(C)CC(=O)N[C@@H](CCc3ccc(Cl)c(Cl)c3)C(=O)N2C1 [PP1485] | – | – | – | – | A (a compound having 10 or more and less than 20 is denoted as A) | A (a compound having 10 or more and less than 20 is denoted as A) |
